Data: PubChem BioAssay (NCI)
Several values for one entry are separate records, joined by “and”; a condition that tells them apart may be missing. Equal values may be shown once.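 Protocol summary: plate cells (96-well), add compound at 5 concentrations, incubate 48 h, interpolate endpoints linearly. At the GI50, growth is halved. At the TGI there is no net growth.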

Columns and labels:
Assay in all cases: NCI anticancer screen, dose series, 48 h
SNB-19 CNS = test system: SNB-19 CNS
SW-620 colon = test system: SW-620 colon
DU-145 prostate = test system: DU-145 prostate
U251 CNS = test system: U251 CNS
SNB-75 CNS = test system: SNB-75 CNS
RPMI-8226 leukemia = test system: RPMI-8226 leukemia
SR leukemia = test system: SR leukemia
TK-10 renal = test system: TK-10 renal
SK-MEL-2 melanoma = test system: SK-MEL-2 melanoma
HL-60(TB) leukemia = test system: HL-60(TB) leukemia
SF-268 CNS = test system: SF-268 CNS
MOLT-4 leukemia = test system: MOLT-4 leukemia
EKVX NSCLC = test system: EKVX NSCLC

| SMILES | TGI (SNB-19 CNS) | TGI (SW-620 colon) | TGI (DU-145 prostate) | TGI (U251 CNS) | TGI (SNB-75 CNS) | TGI (RPMI-8226 leukemia) | TGI (SR leukemia) | TGI (TK-10 renal) | TGI (SK-MEL-2 melanoma) | TGI (HL-60(TB) leukemia) | TGI (SF-268 CNS) | TGI (MOLT-4 leukemia) | GI50 (SW-620 colon) | GI50 (U251 CNS) | GI50 (EKVX NSCLC) | TGI (EKVX NSCLC) | GI50 (SK-MEL-2 melanoma) | GI50 (HL-60(TB) leukemia) | GI50 (SF-268 CNS) | GI50 (MOLT-4 leukemia) |
| --- | --- | --- | --- | --- | --- | --- | --- | --- | --- | --- | --- | --- | --- | --- | --- | --- | --- | --- | --- | --- |
| Nc1ccccc1CCCC(=O)O | > 100 µM | > 100 µM | > 100 µM | > 100 µM | > 100 µM | > 100 µM | > 100 µM | > 100 µM | > 100 µM | > 100 µM | > 100 µM | > 100 µM |  |  |  |  |  |  |  |  |
| CC1=C(C)C(=O)O[C@@H]([C@](C)(O)[C@]2(O)CC[C@@]3(O)[C@@H]4C[C@H]5O[C@]56[C@@H](O)C=CC(=O)[C@]6(C)[C@H]4CC[C@]23C)C1 | 31.1 µM | 0.787 µM and 0.574 µM |  | 6.71 µM and 6.54 µM | 0.884 µM |  |  |  | 1.65 µM and 2.56 µM |  |  |  | 0.266 µM and 0.0856 µM | 2.51 µM | 2.5 µM and 0.404 µM | 3.36 µM and 1.76 µM | 0.385 µM | 0.0665 µM and 0.053 µM | 1.3 µM and 0.381 µM | 0.0688 µM and 0.177 µM |
| O=c1[nH]c(Nc2ccc(F)c(Cl)c2)nc2nc[nH]c12 | > 100 µM | > 100 µM | > 100 µM | > 100 µM | 97.8 µM | > 100 µM |  | > 100 µM | > 100 µM | > 100 µM | > 100 µM | 39.5 µM |  |  |  | > 100 µM |  |  |  |  |
| S=C1SC(=Nc2ccccc2)C(=Nc2ccccc2)N1c1ccccc1 | > 100 µM |  | > 100 µM | > 100 µM | 73.7 µM | > 100 µM | > 100 µM |  | > 100 µM |  |  | > 100 µM |  |  |  |  |  |  |  |  |
| CC(C)=CC1C(COC(=O)c2cc3c(cc2Cl)OCO3)C1(C)C (stereo not given) | > 100 µM | > 100 µM | > 100 µM | 86 µM |  |  | 78.3 µM | > 100 µM | 40.6 µM | 47.6 µM | 65.8 µM | > 100 µM |  |  |  | > 100 µM |  |  |  |  |
| Cc1cc(NC(=S)Nc2ccccc2)c(NC(=S)Nc2ccccc2)cc1C | > 100 µM | > 100 µM |  | > 63.4 µM | > 94.7 µM | 40.4 µM |  |  | > 31.6 µM | 5.23 µM | > 100 µM | > 60.1 µM |  |  |  | > 100 µM |  |  |  |  |
| COCc1nc2c(OC)cc(-c3nc4nc(N5CCN(C)CC5)ccc4[nH]3)c(OC)c2[nH]1 | > 100 µM | > 100 µM | > 100 µM | > 100 µM | > 100 µM |  | > 100 µM | > 100 µM |  | > 100 µM | > 100 µM | > 100 µM |  |  |  | > 100 µM |  |  |  |  |
| N#C[S-].[Nd+3].c1cnc2c(c1)ccc1cccnc12.c1cnc2c(c1)ccc1cccnc12.c1cnc2c(c1)ccc1cccnc12 | 20.3 µM | 24.7 µM |  | 12.4 µM | 26.2 µM | > 100 µM | > 100 µM | 22 µM |  |  | 43 µM | 6.64 µM |  |  |  | 18.7 µM |  |  |  |  |
| O=C1C=CC2(O[C@H](c3ccccc3)[C@@H](c3ccccc3)O2)C(SC(=O)c2ccccc2)C1 (stereo not given in full) | 5.63 µM | 0.811 µM | > 100 µM | 2.9 µM | 5.34 µM | 3.25 µM | > 100 µM | 6.64 µM | 3.51 µM | 7.7 µM | 3.02 µM | > 100 µM |  |  |  |  |  |  |  |  |
| CCC(=O)Nc1ccc(N=Cc2cccc(Oc3ccccc3)c2)cc1 | > 100 µM | > 100 µM | > 100 µM |  | > 100 µM | 63.1 µM | 67.9 µM |  | > 100 µM | 63 µM | > 100 µM | 76.8 µM |  |  |  | > 100 µM |  |  |  |  |
